Measurements from patent US7223834B2, “Assays and peptide substrate for determining aggrecan degrading metallo protease activity” (Bristol-Myers Squibb Pharma Company, priority 1997, dated 2007).

System: ADMP
Conditions: GLU to GLN substitution at position 373 (P1)

QTVTWPDMELPLPRNITEGQARGSVILTVK-Biotin [30-IP]
mode of inhibition of the enzyme: competitive inhibitor
